Laboratory results reported in patent publication US10899738B2 (THE REGENTS OF THE UNIVERSITY OF MICHIGAN, priority 2016, dated 2021).
Read-outs that look alike come from different tables or passages of the source. One block for each compound: values may come before it.

Key:
[1] = molecular target: menin protein (Homo sapiens (Human), UniProt O00255); assay: biochemical; format: binding; conditions: FP competitive binding; menin protein 4 nM, FAM-MM2 probe 2 nM; read-out: Menin Binding Affinity IC50
Procedure, shortened: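 Test compounds displaced FAM-MM2 (2 nM) from 4 nM menin after 30 min equilibration at room temperature in PBS buffer containing bovine γ-globulin, 4% DMSO and Triton X-100. Binding was followed by fluorescence polarization. Competition curves were fitted by nonlinear regression to give IC50 and Ki.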

[2] = Cell growth inhibition, CellTiter-Glo Luminescent Cell Viability Assay; format: cell-based
Procedure, shortened: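 Cells seeded at 2,000/well with serially diluted compound and cultured 4 days at 37 °C, 5% CO2. Viability read by CellTiter-Glo luminescence; IC50 derived from dose-response.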

[3] = MOLM-13, 96 h, MOLM13 cells, 4 days, CellTiter-Glo, read-out: Cell Growth Inhibition IC50 (μM) MOLM13
[4] = MV4-11, 96 h, MV4, 11 cells, 4 days, CellTiter-Glo, read-out: Cell Growth Inhibition IC50 (μM) MV4, 11
[5] = MOLM-13, 96 h, read-out: Cell Growth Inhibition IC50 (μM) MOLM13, MOLM13 cells, 4 days, CellTiter-Glo
[6] = MV4-11, 96 h, read-out: Cell Growth Inhibition IC50 (μM) MV4, 11, MV4, 11 cells, 4 days, CellTiter-Glo

Chain of menin protein (O00255 whole entry): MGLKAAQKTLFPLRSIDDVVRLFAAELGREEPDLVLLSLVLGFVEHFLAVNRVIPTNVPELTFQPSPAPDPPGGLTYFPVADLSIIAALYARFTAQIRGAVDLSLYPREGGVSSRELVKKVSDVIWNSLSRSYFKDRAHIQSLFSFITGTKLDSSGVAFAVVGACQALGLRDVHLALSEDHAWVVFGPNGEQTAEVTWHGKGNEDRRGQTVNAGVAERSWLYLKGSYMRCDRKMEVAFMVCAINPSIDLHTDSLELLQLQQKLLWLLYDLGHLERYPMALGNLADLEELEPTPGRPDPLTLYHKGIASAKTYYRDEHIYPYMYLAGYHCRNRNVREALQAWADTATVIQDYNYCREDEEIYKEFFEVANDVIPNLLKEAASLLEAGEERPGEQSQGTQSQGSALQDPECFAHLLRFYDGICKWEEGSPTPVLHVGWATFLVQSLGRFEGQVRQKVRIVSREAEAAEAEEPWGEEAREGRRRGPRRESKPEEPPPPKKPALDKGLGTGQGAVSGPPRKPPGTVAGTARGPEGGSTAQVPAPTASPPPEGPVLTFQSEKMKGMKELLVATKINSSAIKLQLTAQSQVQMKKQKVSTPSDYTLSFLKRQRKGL

SMILES: O=S(=O)(c1ccncc1)c1ccc(N2CC(CN3CCC(C4(C5CCCC5)CN(C5CCC5)Cc5ccccc54)CC3)C2)cc1 (stereo not drawn) [compound 49, 2-cyclobutyl-4-cyclopentyl-4-(1-((1-(4-(pyridin-4-ylsulfonyl)phenyl)azetidin-3-yl)methyl)piperidin-4-yl)-1,2,3,4-tetrahydroisoquinoline]
IC50 [1]: 9 nM
IC50 [2, 3]: 4 µM
IC50 [2, 4]: 0.898 µM

IC50 [1]: 5 nM
SMILES: CNC(=O)O[C@H]1CCC[C@@H]1C(Cn1ccnc1)(c1cccc(F)c1)C1CCN(CC2CN(c3ccc(C#N)cc3)C2)CC1 (mixture of isomers) [compound 390, rac-(1S,2R)-2-(1-(1-((1-(4-cyanophenyl)azetidin-3-yl)methyl)piperidin-4-yl)-1-(3-fluorophenyl)-2-(1H-imidazol-1-yl)ethyl)cyclopentyl methylcarbamate]
IC50 [2, 5]: 0.082 µM
IC50 [2, 6]: 0.021 µM

SMILES: CC(=O)O[C@H]1CCC[C@@H]1C1(C2CCN(CCCOc3ccc(C#N)cc3)CC2)CN(C)Cc2ccc(F)cc21 (mixture of isomers) [compound 314, rac-(1S,2R)-2-(4-(1-(3-(4-cyanophenoxy)propyl)piperidin-4-yl)-6-fluoro-2-methyl-1,2,3,4-tetrahydroisoquinolin-4-yl)cyclopentyl acetate]
IC50 [1]: 31 nM
IC50 [2, 5]: > 10 µM
IC50 [2, 6]: 2.97 µM

IC50 [1]: 16 nM
SMILES: COC(=O)N[C@H]1CCC[C@@H]1C(C#N)(c1ccccc1)C1CCN(CC2CN(c3ccc(S(=O)(=O)C4CC4)cc3Cl)C2)CC1 (mixture of isomers) [compound 395, methyl rac-((1S,2R)-2-((1-((1-(2-chloro-4-(cyclopropylsulfonyl)phenyl)azetidin-3-yl)methyl)piperidin-4-yl)(cyano)(phenyl)methyl)cyclopentyl)carbamate]
IC50 [2, 5]: 2.29 µM
IC50 [2, 6]: 0.65 µM

SMILES: CNC(=O)N[C@H]1CCC[C@@H]1C1(C2CCN(CC3CN(c4ccc(S(=O)(=O)C5CC5)cc4)C3)CC2)CNCc2ccccc21 (mixture of isomers) [compound 285, rac-1-((1S,2R)-2-(4-(1-((1-(4-(cyclopropylsulfonyl)phenyl)azetidin-3-yl)methyl)piperidin-4-yl)-1,2,3,4-tetrahydroisoquinolin-4-yl)cyclopentyl)-3-methylurea]
IC50 [1]: 9 nM
IC50 [2, 5]: 12.4 µM
IC50 [2, 6]: 2.48 µM

SMILES: CN1Cc2ccccc2C(C2CCCC2)(C2CCN(CC3CN(c4ccc(C#N)cc4)C3)CC2)C1 (stereo not drawn) [compound 45, 4-(3-((4-(4-cyclopentyl-2-methyl-1,2,3,4-tetrahydroisoquinolin-4-yl)piperidin-1-yl)methyl)azetidin-1-yl)benzonitrile]
IC50 [1]: 27 nM
IC50 [2, 3]: 5 µM
IC50 [2, 4]: 0.845 ± 0.436 µM

SMILES: c1cnc(N2CC(CN3CCC(C4(C5CCCC5)NCCc5ccccc54)CC3)C2)nc1 (stereo not drawn) [compound 111, 1-cyclopentyl-1-(1-((1-(pyrimidin-2-yl)azetidin-3-yl)methyl)piperidin-4-yl)-1,2,3,4-tetrahydroisoquinoline]
IC50 [1]: 46200 nM
IC50 [2, 3]: 96.2 µM
IC50 [2, 4]: 14.4 µM

SMILES: CCN1Cc2ccccc2C(C2CCCC2)(C2CCN(CC3CN(c4ccc(S(=O)(=O)c5ccccc5)cc4)C3)CC2)C1 (stereo not drawn) [compound 147, 4-cyclopentyl-2-ethyl-4-(1-((1-(4-(phenylsulfonyl)phenyl)azetidin-3-yl)methyl)piperidin-4-yl)-1,2,3,4-tetrahydroisoquinoline]
IC50 [1]: 9 nM
IC50 [2, 3]: 1.6 ± 0.8 µM
IC50 [2, 4]: 0.956 ± 0.727 µM

SMILES: CNC(=O)N[C@H]1CCC[C@@H]1C(C#N)(c1ccccc1)C1CCN(CC2CN(c3ccc(S(=O)(=O)c4ccncc4)cc3)C2)CC1 (mixture of isomers) [compound 269, rac-1-((1S,2R)-2-(cyano(phenyl)(1-((1-(4-(pyridin-4-ylsulfonyl)phenyl)azetidin-3-yl)methyl)piperidin-4-yl)methyl)cyclopentyl)-3-methylurea]
IC50 [1]: 9 nM
IC50 [2, 5]: 1.73 µM
IC50 [2, 6]: 0.273 µM

SMILES: CCN1Cc2ccccc2C(C2CCCC2)(C2CCN(CC3CN(c4ccc(S(=O)(=O)C5CC5)cc4)C3)CC2)C1 (stereo not drawn) [compound 137, 4-cyclopentyl-4-(1-((1-(4-(cyclopropylsulfonyl)phenyl)azetidin-3-yl)methyl)piperidin-4-yl)-2-ethyl-1,2,3,4-tetrahydroisoquinoline]
IC50 [1]: 8 nM
IC50 [2, 3]: 1.9 ± 0.7 µM
IC50 [2, 4]: 1 ± 0.2 µM

SMILES: CNC(=O)O[C@H]1CCC[C@@H]1C(Cn1ccnc1C)(c1cccc(F)c1)C1CCN(CC2CN(c3ccc(S(=O)(=O)c4cnn(C)c4)cc3)C2)CC1 (mixture of isomers) [compound 411, rac-(1S,2R)-2-(1-(3-fluorophenyl)-2-(2-methyl-1H-imidazol-1-yl)-1-(1-((1-(4-((1-methyl-1H-pyrazol-4-yl)sulfonyl)phenyl)azetidin-3-yl)methyl)piperidin-4-3-yl)ethyl)cyclopentyl methylcarbamate]
IC50 [1]: 3 nM
IC50 [2, 5]: 0.016 µM
IC50 [2, 6]: 0.003 µM

SMILES: CC(=O)O[C@H]1CCC[C@@H]1C(C#N)(c1ccccc1)C1CCN(CC2CN(c3ccc(S(=O)(=O)c4ccncc4)cc3)C2)CC1 (mixture of isomers) [compound 185, rac-(1S,2R)-2-(cyano(phenyl)(1-((1-(4-(pyridin-4-ylsulfonyl)phenyl)azetidin-3-yl)methyl)piperidin-4-yl)methyl)cyclopentyl acetate]
IC50 [1]: 7 nM
IC50 [2, 5]: 0.783 ± 0.474 µM
IC50 [2, 6]: 0.624 ± 0.165 µM

SMILES: O=S(=O)(c1ccc(N2CC(CN3CCC(C4(C5CCCC5)NCCc5ccccc54)CC3)C2)cc1)C1CCCCC1 (stereo not drawn) [compound 92, 1-(1-((1-(4-(cyclohexylsulfonyl)phenyl)azetidin-3-yl)methyl)piperidin-4-yl)-1-cyclopentyl-1,2,3,4-tetrahydroisoquinoline]
IC50 [1]: 19 nM
IC50 [2, 3]: 1.6 ± 0.1 µM
IC50 [2, 4]: 0.961 ± 0.384 µM

SMILES: CNC(=O)O[C@@H]1CCC[C@H]1C(Cn1ccnc1C)(c1cccc(F)c1)C1CCN(CC2CN(c3ccc(S(=O)(=O)c4cnn(C)c4)cc3)C2)CC1 (mixture of isomers) [compound 410, rac-(1R,2S)-2-(1-(3-fluorophenyl)-2-(2-methyl-1H-imidazol-1-yl)-1-(1-((1-(4-((1-methyl-1H-pyrazol-4-yl)sulfonyl)phenyl)azetidin-3-yl)methyl)piperidin-4-yl)ethyl)cyclopentyl methylcarbamate]
IC50 [1]: 49 nM
IC50 [2, 5]: 3.1 µM
IC50 [2, 6]: 2.7 µM

SMILES: CCN1Cc2ccccc2C(C2CCN(CC3CN(c4ccc(S(=O)(=O)C5CC5)cc4)C3)CC2)([C@H]2CCC[C@@H]2NC(=O)NC)C1 (mixture of isomers) [compound 289, rac-1-((1S,2R)-2-(4-(1-((1-(4-(cyclopropylsulfonyl)phenyl)azetidin-3-yl)methyl)piperidin-4-yl)-2-ethyl-1,2,3,4-tetrahydroisoquinolin-4-yl)cyclopentyl)-3-methylurea]
IC50 [1]: 4 nM
IC50 [2, 5]: 0.32 µM
IC50 [2, 6]: 0.17 µM

SMILES: O=S(=O)(CC1CCCCC1)c1ccc(N2CC(CN3CCC(C4(C5CCCC5)NCCc5ccccc54)CC3)C2)cc1 (stereo not drawn) [compound 93, 1-(1-((1-(4-((cyclohexylmethyl)sulfonyl)phenyl)azetidin-3-yl)methyl)piperidin-4-yl)-1-cyclopentyl-1,2,3,4-tetrahydroisoquinoline]
IC50 [1]: 52 nM
IC50 [2, 3]: 1.1 ± 0.7 µM
IC50 [2, 4]: 0.779 ± 0.068 µM

SMILES: COC(=O)N[C@H]1CCC[C@@H]1C(C#N)(c1ccccc1)C1CCN(CC2CN(c3ccc(S(=O)(=O)c4ccncc4)cc3)C2)CC1 (mixture of isomers) [Cpd. No. 345, methyl (rac-(1S,2R)-2-(cyano(phenyl)(1-((1-(4-(pyridin-4-ylsulfonyl)phenyl)azetidin-3-yl)methyl)piperidin-4-yl)methyl)cyclopentyl)carbamate]
IC50 [1]: 11 nM
IC50 [2, 5]: 0.71 µM
IC50 [2, 6]: 0.54 µM

SMILES: CCN1Cc2ccccc2C(C2CCCC2)(C2CCN(CC3CN(c4ccc(S(=O)(=O)c5ccncc5)cc4)C3)CC2)C1 (stereo not drawn) [Cpd. No. 148, 4-cyclopentyl-2-ethyl-4-(1-((1-(4-(pyridin-4-ylsulfonyl)phenyl)azetidin-3-yl)methyl)piperidin-4-yl)-1,2,3,4-tetrahydroisoquinoline]
IC50 [1]: 6 nM
IC50 [2, 3]: 1.5 ± 0.9 µM
IC50 [2, 4]: 0.81 ± 0.364 µM

SMILES: CCN1Cc2ccccc2C(C2CCCC2)(C2CCN(CC3CN(c4ccc(S(=O)(=O)C5CC5)cc4)C3)C(C)C2)C1 (stereo not drawn) [compound 95, 4-cyclopentyl-4-(1-((1-(4-(cyclopropylsulfonyl)phenyl)azetidin-3-yl)methyl)-2-methylpiperidin-4-yl)-2-ethyl-1,2,3,4-tetrahydroisoquinoline]
IC50 [1]: 24 nM
IC50 ([2]; MOLM13 cells, 4 days, CellTiter-Glo, read-out: Cell Growth Inhibition IC50 (μM) MOLM13): 1.9 µM
IC50 ([2]; MV4, 11 cells, 4 days, CellTiter-Glo, read-out: Cell Growth Inhibition IC50 (μM) MV4, 11): 1.8 µM

SMILES: CC(=O)N[C@H]1CCC[C@@H]1C1(C2CCN(CC3CN(c4ccc(S(=O)(=O)c5cnn(C)c5)cc4)C3)CC2)CNCc2ccccc21 (mixture of isomers) [compound 286, rac-N-((1S,2R)-2-(4-(1-((1-(4-((1-methyl-1H-pyrazol-4-yl)sulfonyl)phenyl)azetidin-3-yl)methyl)piperidin-4-yl)-1,2,3,4-tetrahydroisoquinolin-4-yl)cyclopentyl)acetamide]
IC50 [1]: 4 nM
IC50 [2, 5]: 5.69 µM
IC50 [2, 6]: 0.48 µM
